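Dose response: 5 concentrations. Exposure: 48 h. Format: 96-well plates. Endpoint: linear interpolation; highest concentration if not reached. GI50 marks 50% less growth. The concentration for full growth arrest is given as TGI.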
Assays:
Assay in all cases: NCI anticancer screen, dose series, 48 h
SF-295 CNS = system: SF-295 CNS
SK-MEL-5 melanoma = system: SK-MEL-5 melanoma
MALME-3M melanoma = system: MALME-3M melanoma
UACC-257 melanoma = system: UACC-257 melanoma
UACC-62 melanoma = system: UACC-62 melanoma
EKVX NSCLC = system: EKVX NSCLC
T-47D breast = system: T-47D breast
HOP-62 NSCLC = system: HOP-62 NSCLC
OVCAR-8 ovarian = system: OVCAR-8 ovarian
HL-60(TB) leukemia = system: HL-60(TB) leukemia

SMILES	TGI (SF-295 CNS)	TGI (SK-MEL-5 melanoma)	TGI (MALME-3M melanoma)	TGI (UACC-257 melanoma)	TGI (UACC-62 melanoma)	TGI (EKVX NSCLC)	TGI (T-47D breast)	TGI (HOP-62 NSCLC)	TGI (OVCAR-8 ovarian)	TGI (HL-60(TB) leukemia)	GI50 (SF-295 CNS)	GI50 (SK-MEL-5 melanoma)	GI50 (UACC-257 melanoma)	GI50 (UACC-62 melanoma)	GI50 (EKVX NSCLC)	GI50 (T-47D breast)	GI50 (HOP-62 NSCLC)	GI50 (OVCAR-8 ovarian)	GI50 (HL-60(TB) leukemia)	GI50 (MALME-3M melanoma)
COc1c(-c2cc(C)c(Cl)c(=O)[nH]2)c(O)c(OC)c2occc12	> 100 µM	> 100 µM	> 100 µM	> 100 µM	> 100 µM	> 100 µM	> 100 µM	> 100 µM	> 100 µM	> 100 µM										
Brc1ccc2c(-c3nc(-c4c[nH]c5ccccc45)cs3)c[nH]c2c1	> 100 µM	57.1 µM	> 100 µM	> 100 µM	> 100 µM	> 100 µM	> 100 µM	> 100 µM	> 100 µM	> 100 µM										
CC1(CCCC2(C)CCNC2=O)OCCO1 (stereo unspecified)	> 10 µM	> 10 µM	> 10 µM	> 10 µM	> 10 µM	> 10 µM	> 10 µM	> 10 µM	> 10 µM	> 10 µM										
CCN(CC)CCCCCCCCNc1c2ccc(Cl)cc2nc2ccc(OC)cc12	3.95 µM	2.89 µM		3.57 µM	3.22 µM	6.13 µM	6.91 µM	3.13 µM	3.64 µM	4.08 µM	1.68 µM	1.54 µM	1.97 µM	1.8 µM	2.11 µM	2.82 µM	1.4 µM	1.39 µM	2.04 µM	
COc1c2occc2c(OC)c2c(=O)c(S(=O)(=O)NC(=O)Nc3ccc(Cl)cc3)coc12	> 10 µM	> 10 µM	> 10 µM	> 10 µM	> 10 µM	> 10 µM	> 10 µM	> 10 µM	> 10 µM	> 10 µM										
N#CCCNCCN(CCN(C(=O)Nc1ccccc1)c1ccccc1)C(=O)Nc1ccccc1	> 100 µM	45 µM	54.8 µM	32.1 µM	> 100 µM	> 100 µM	> 100 µM	> 100 µM	> 100 µM	> 100 µM										
COc1cc2c(cc1OCCCC(=O)Nc1cc(C(=O)Nc3cc(C(=O)Nc4cc(C(=O)NCCCN(C)C)n(C)c4)n(C)c3)n(C)c1)N=C[C@@H]1CCCN1C2=O	26.4 µM	6.65 µM	3.39 µM	4.09 µM	6.53 µM	7.57 µM	4 µM	9.83 µM	3.21 µM	3.42 µM										
CO/C(=N\N=C\c1ccc(Cl)cc1)c1ccncc1	> 100 µM	> 100 µM	> 100 µM	> 100 µM	> 100 µM	> 100 µM		> 100 µM	> 100 µM	> 100 µM										
CC(=O)Nc1ccc2c(C(=O)O)c(C)c(=O)[nH]c2n1	> 100 µM	> 100 µM	> 100 µM	> 100 µM	> 100 µM	> 100 µM	> 100 µM		> 100 µM	> 100 µM										
COC(=O)C1=C(C)N2CCCOC2(C)C(C(=O)OC)C1c1cccc(Cl)c1 (stereo unspecified)	88.9 µM	> 100 µM		57.1 µM	36.5 µM	89.3 µM		48.7 µM	87.9 µM	58.4 µM										
O=[N+]([O-])c1ccc2c(c1)nc(Cc1ccccc1)n2C[C@@H]1CCCN2CCCCC12 (stereo partly specified)	37.9 µM	31.4 µM	29.2 µM	31.4 µM	36.3 µM	62 µM	> 100 µM	> 100 µM	> 100 µM											
COC12C=C/C(=C(/C(=O)OCc3ccncn3)C(=O)CCCCCCCCC3(OC)C=C/C(=C(/C(=O)OCc4ccncn4)C(=O)CCCCCCCC1)O3)O2	0.703 µM		0.629 µM	0.882 µM		2.34 µM	25.7 µM	0.6 µM	14.9 µM	1.4 µM	0.221 µM		0.261 µM		0.35 µM	0.28 µM	0.225 µM	0.331 µM	0.298 µM	0.228 µM
Cc1nc2c(cc1C(=O)NN)c(=O)n(C)c(=O)n2C	> 100 µM	> 100 µM		> 100 µM	> 100 µM	> 100 µM	> 100 µM	> 100 µM	> 100 µM											
COc1ccc2c(c1)OCC1(O)Cc3ccccc3OC21 (stereo unspecified)	> 100 µM	> 100 µM	> 100 µM	> 100 µM	> 100 µM	> 100 µM	> 100 µM	> 100 µM	> 100 µM											
CC(=O)N1N=C(c2c(O)ccc3ccccc23)CC1C(=O)c1ccco1 (stereo unspecified)	> 100 µM	89.9 µM	> 100 µM	> 100 µM	32.8 µM		> 100 µM	> 100 µM	> 100 µM											
CN(C)CCCn1c(Cc2ccccc2)nc2cc(C(F)(F)F)ccc21	33.5 µM	33.2 µM	35.5 µM	34.2 µM	34.4 µM	67.6 µM	50.7 µM	> 100 µM	> 100 µM											
CC(=O)NC1(C)CCC(C(C)(C)NC(C)=O)CC1 (stereo unspecified)	> 100 µM	> 100 µM	> 100 µM	> 100 µM	> 100 µM	> 100 µM		> 100 µM	> 100 µM	> 100 µM										
COc1ccc2oc(S(=O)(=O)N3CC(CCl)c4ccc([N+](=O)[O-])cc43)cc2c1 (stereo unspecified)	0.196 µM	5.45 µM	32.8 µM	> 32.1 µM	> 37.6 µM	48.8 µM	79.8 µM		4.36 µM											
CCNc1nc(N)c(C(=O)c2ccc(Cl)cc2)s1		> 100 µM	> 100 µM	> 100 µM	> 100 µM	45.5 µM	> 100 µM	> 100 µM		36 µM										
CC1(C)CCC[C@]2(C)[C@@H]1CC[C@@]13O[C@@H]1C1=C(CO)C(=O)O[C@]14O[C@@H]4[C@@H]23	32.3 µM	31.7 µM	32.4 µM	35.8 µM	37.7 µM	24.9 µM	> 100 µM	34.6 µM	26.7 µM											
CC1(C)O[C@H](C(=O)O)[C@@H](C(=O)O)O1	> 100 µM	> 100 µM	> 100 µM	> 100 µM	> 100 µM	> 100 µM	> 100 µM	> 100 µM	> 100 µM											
